ChEMBL document CHEMBL1151043, “The synthesis and antibacterial activity of 2-para-quarternary ammoniomethylphenyl-carbapenems” (1993)

Key:
Pseudomonas = experiment: In vitro antibacterial activity against Pseudomonas relative to thienamycin; format: functional
Staphylococcus aureus = experiment: In vitro antibacterial activity against Staphylococcus aureus relative to thienamycin; format: functional
[1] = target: T1, Dipeptidase 1 (Sus scrofa) (UniProt P22412); experiment: Susceptibility of compound towards porcine Dehydropeptidase-1 relative to imipenem as […] was calculated
T1 sequence (whole entry): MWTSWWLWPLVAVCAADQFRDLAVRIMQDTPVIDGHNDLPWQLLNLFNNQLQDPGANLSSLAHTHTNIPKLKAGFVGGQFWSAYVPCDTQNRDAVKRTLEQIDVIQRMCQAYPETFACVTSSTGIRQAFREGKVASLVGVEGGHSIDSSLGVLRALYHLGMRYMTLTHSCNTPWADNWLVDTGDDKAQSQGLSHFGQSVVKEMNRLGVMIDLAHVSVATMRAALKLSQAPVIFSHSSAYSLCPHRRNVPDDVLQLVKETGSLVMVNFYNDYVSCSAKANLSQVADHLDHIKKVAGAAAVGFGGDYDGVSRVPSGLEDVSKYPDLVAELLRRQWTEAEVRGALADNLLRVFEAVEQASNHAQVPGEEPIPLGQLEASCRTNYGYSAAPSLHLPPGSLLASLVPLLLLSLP

Proteus = experiment: In vitro antibacterial activity against Proteus relative to thienamycin; format: functional, Proteus sp.
Klebsiella = experiment: In vitro antibacterial activity against Klebsiella relative to thienamycin; format: functional
Escherichia coli = experiment: In vitro antibacterial activity against Escherichia coli relative to thienamycin; format: functional
Serratia = experiment: In vitro antibacterial activity against Serratia relative to thienamycin; format: functional
Enterobacter = experiment: In vitro antibacterial activity against Enterobacter relative to thienamycin; format: functional
Enterococcus = experiment: In vitro antibacterial activity against Enterococcus relative to thienamycin; format: functional

## C[C@@H](O)[C@H]1C(=O)N2C(C(=O)[O-])=C(c3ccc(C[n+]4ccc(N5CCSCC5)cc4)cc3)C[C@H]12
Pseudomonas
  Relative potency: 0.04
Staphylococcus aureus
  Relative potency: 1.2
[1]
  Susceptibility: 0.09
Proteus
  Relative potency: 7
Klebsiella
  Relative potency: 1.1
Escherichia coli
  Relative potency: 5.3
Serratia
  Relative potency: 4.9
Enterobacter
  Relative potency: 4.6
Enterococcus
  Relative potency: 4.9

## C[C@@H](O)[C@H]1C(=O)N2C(C(=O)[O-])=C(c3ccc(C[n+]4ccccc4)cc3)C[C@H]12
Pseudomonas
  Relative potency: 0.1
Staphylococcus aureus
  Relative potency: 1.3
[1]
  Susceptibility: 0.07
Proteus
  Relative potency: 9.8
Klebsiella
  Relative potency: 4.3
Escherichia coli
  Relative potency: 3.5
Serratia
  Relative potency: 9.8
Enterobacter
  Relative potency: 7
Enterococcus
  Relative potency: 13

## C[C@@H](O)[C@H]1C(=O)N2C(C(=O)[O-])=C(c3ccc(C[N+]4(C)CCCCC4)cc3)C[C@H]12
Pseudomonas
  Relative potency: 0.03
Staphylococcus aureus
  Relative potency: 0.8
[1]
  Susceptibility: 0.03
Proteus
  Relative potency: 9.8
Klebsiella
  Relative potency: 1.9
Escherichia coli
  Relative potency: 5.3
Serratia
  Relative potency: 11.3
Enterobacter
  Relative potency: 8
Enterococcus
  Relative potency: 14.9

## C[C@@H](O)[C@H]1C(=O)N2C(C(=O)[O-])=C(c3ccc(C[n+]4cccc(C#N)c4)cc3)C[C@H]12
Pseudomonas
  Relative potency: 0.1
Staphylococcus aureus
  Relative potency: 0.9
[1]
  Susceptibility: 0.06
Proteus
  Relative potency: 4.6
Klebsiella
  Relative potency: 2.1
Escherichia coli
  Relative potency: 4
Serratia
  Relative potency: 11.3
Enterobacter
  Relative potency: 9.8
Enterococcus
  Relative potency: 10.6

## C[C@@H](O)[C@H]1C(=O)N2C(C(=O)[O-])=C(c3ccc(C[n+]4cccc(N)c4)cc3)C[C@H]12
Pseudomonas
  Relative potency: 0.1
Staphylococcus aureus
  Relative potency: 2.3
[1]
  Susceptibility: 0.09
Proteus
  Relative potency: 14.9
Klebsiella
  Relative potency: 4.3
Escherichia coli
  Relative potency: 7.5
Serratia
  Relative potency: 22.6
Enterobacter
  Relative potency: 11.3
Enterococcus
  Relative potency: 17.1

## C[C@@H](O)[C@H]1C(=O)N2C(C(=O)[O-])=C(c3ccc(C[n+]4cccc(C(F)(F)F)c4)cc3)C[C@H]12
Pseudomonas
  Relative potency: 0.05
Staphylococcus aureus
  Relative potency: 1.1
[1]
  Susceptibility: 0.04
Proteus
  Relative potency: 3.7
Klebsiella
  Relative potency: 2.8
Escherichia coli
  Relative potency: 3
Serratia
  Relative potency: 13
Enterobacter
  Relative potency: 5.7
Enterococcus
  Relative potency: 8

## C[C@@H](O)[C@H]1C(=O)N2C(C(=O)[O-])=C(c3ccc(C[N+]4(C)CCCC4)cc3)C[C@H]12
Pseudomonas
  Relative potency: 0.03
Staphylococcus aureus
  Relative potency: 0.9
[1]
  Susceptibility: 0.03
Proteus
  Relative potency: 8.6
Klebsiella
  Relative potency: 2.6
Escherichia coli
  Relative potency: 3.2
Serratia
  Relative potency: 26
Enterobacter
  Relative potency: 7.5
Enterococcus
  Relative potency: 13.9

## C[C@@H](O)[C@H]1C(=O)N2C(C(=O)[O-])=C(c3ccc(C[n+]4ccc(N5CCCCC5)cc4)cc3)C[C@H]12
Pseudomonas
  Relative potency: 0.05
Staphylococcus aureus
  Relative potency: 1.1
[1]
  Susceptibility: 0.11
Proteus
  Relative potency: 4
Klebsiella
  Relative potency: 0.5
Escherichia coli
  Relative potency: 2.8
Serratia
  Relative potency: 2.8
Enterobacter
  Relative potency: 2.5
Enterococcus
  Relative potency: 5.7

## C[C@@H](O)[C@H]1C(=O)N2C(C(=O)O)=C(c3ccc(CN4CCCCC4)cc3)C[C@H]12
Pseudomonas
  Relative potency: 0.05
Staphylococcus aureus
  Relative potency: 0.6
[1]
  Susceptibility: 0.03
Proteus
  Relative potency: 8.6
Klebsiella
  Relative potency: 1.4
Escherichia coli
  Relative potency: 2.5
Serratia
  Relative potency: 5.7
Enterobacter
  Relative potency: 4
Enterococcus
  Relative potency: 6.1

## C[C@@H](O)[C@H]1C(=O)N2C(C(=O)[O-])=C(c3ccc(C[n+]4ccccc4N)cc3)C[C@H]12
Pseudomonas
  Relative potency: 0.08
Staphylococcus aureus
  Relative potency: 1.3
[1]
  Susceptibility: 0.11
Proteus
  Relative potency: 8
Klebsiella
  Relative potency: 2.6
Escherichia coli
  Relative potency: 2.8
Serratia
  Relative potency: 11.3
Enterobacter
  Relative potency: 6.1
Enterococcus
  Relative potency: 21.1

## C[C@@H](O)[C@H]1C(=O)N2C(C(=O)[O-])=C(c3ccc(C[n+]4ccc5ccccc5c4N)cc3)C[C@H]12
Pseudomonas
  Relative potency: 0.05
Staphylococcus aureus
  Relative potency: 1.3
[1]
  Susceptibility: 0.14
Proteus
  Relative potency: 3.7
Klebsiella
  Relative potency: 0.7
Escherichia coli
  Relative potency: 2.7
Serratia
  Relative potency: 3.7
Enterobacter
  Relative potency: 2.3
Enterococcus
  Relative potency: 9.2

## C[C@@H](O)[C@H]1C(=O)N2C(C(=O)[O-])=C(c3ccc(C[n+]4cccc(C(=O)O)c4)cc3)C[C@H]12
[1]
  Susceptibility: 0.08

## C[C@@H](O)[C@H]1C(=O)N2C(C(=O)[O-])=C(c3ccc(C[n+]4cccc5ccccc54)cc3)C[C@H]12
Pseudomonas
  Relative potency: 0.07
Staphylococcus aureus
  Relative potency: 1.5
[1]
  Susceptibility: 0.07
Proteus
  Relative potency: 13
Klebsiella
  Relative potency: 1.2
Escherichia coli
  Relative potency: 6.1
Serratia
  Relative potency: 27.9
Enterobacter
  Relative potency: 8.6
Enterococcus
  Relative potency: 24.3

## C[C@@H](O)[C@H]1C(=O)N2C(C(=O)[O-])=C(c3ccc(C[n+]4ccc(N5CCCC5)cc4)cc3)C[C@H]12
Pseudomonas
  Relative potency: 0.04
Staphylococcus aureus
  Relative potency: 0.6
[1]
  Susceptibility: 0.33
Proteus
  Relative potency: 7.5
Klebsiella
  Relative potency: 0.8
Escherichia coli
  Relative potency: 3.5
Serratia
  Relative potency: 7.5
Enterobacter
  Relative potency: 3
Enterococcus
  Relative potency: 14.9

## C[C@@H](O)[C@H]1C(=O)N2C(C(=O)[O-])=C(c3ccc(C[n+]4ccc5ccccc5c4)cc3)C[C@H]12
Pseudomonas
  Relative potency: 0.07
Staphylococcus aureus
  Relative potency: 1.3
[1]
  Susceptibility: 0.08
Proteus
  Relative potency: 17.1
Klebsiella
  Relative potency: 2
Escherichia coli
  Relative potency: 7.5
Serratia
  Relative potency: 36.8
Enterobacter
  Relative potency: 11.3
Enterococcus
  Relative potency: 24.3

## C[C@@H](O)[C@H]1C(=O)N2C(C(=O)O)=C(c3ccc(CN4CCN(C)CC4)cc3)C[C@H]12
Pseudomonas
  Relative potency: 0.04
Staphylococcus aureus
  Relative potency: 0.4
[1]
  Susceptibility: 0.12
Proteus
  Relative potency: 9.2
Klebsiella
  Relative potency: 1
Escherichia coli
  Relative potency: 3
Serratia
  Relative potency: 7
Enterobacter
  Relative potency: 4.9
Enterococcus
  Relative potency: 5.7

## C[C@@H](O)[C@H]1C(=O)N2C(C(=O)O)=C(c3ccc(CN4CCSCC4)cc3)C[C@H]12
Pseudomonas
  Relative potency: 0.03
Staphylococcus aureus
  Relative potency: 0.9
[1]
  Susceptibility: 0.13
Proteus
  Relative potency: 7
Klebsiella
  Relative potency: 1.3
Escherichia coli
  Relative potency: 2.3
Serratia
  Relative potency: 7.5
Enterobacter
  Relative potency: 3.2
Enterococcus
  Relative potency: 9.2

## C[C@@H](O)[C@H]1C(=O)N2C(C(=O)[O-])=C(c3ccc(C[n+]4cc(N)cc5ccccc54)cc3)C[C@H]12
Pseudomonas
  Relative potency: 0.05
Staphylococcus aureus
  Relative potency: 1.9
[1]
  Susceptibility: 0.09
Proteus
  Relative potency: 9.2
Klebsiella
  Relative potency: 0.9
Escherichia coli
  Relative potency: 3.7
Serratia
  Relative potency: 9.2
Enterobacter
  Relative potency: 3.7
Enterococcus
  Relative potency: 12.1

## C[C@@H](O)[C@H]1C(=O)N2C(C(=O)[O-])=C(c3ccc(C[N+]4(C)CCOCC4)cc3)C[C@H]12
Pseudomonas
  Relative potency: 0.02
Staphylococcus aureus
  Relative potency: 0.8
[1]
  Susceptibility: 0.02
Proteus
  Relative potency: 6.1
Klebsiella
  Relative potency: 2.3
Escherichia coli
  Relative potency: 2
Serratia
  Relative potency: 7.5
Enterobacter
  Relative potency: 5.7
Enterococcus
  Relative potency: 10.6

## C[C@@H](O)[C@H]1C(=O)N2C(C(=O)[O-])=C(c3ccc(C[n+]4ccc(N5CCOCC5)cc4)cc3)C[C@H]12
Pseudomonas
  Relative potency: 0.1
Staphylococcus aureus
  Relative potency: 0.5
[1]
  Susceptibility: 0.06
Proteus
  Relative potency: 4.6
Klebsiella
  Relative potency: 2.1
Escherichia coli
  Relative potency: 4
Serratia
  Relative potency: 11.3
Enterobacter
  Relative potency: 9.8
Enterococcus
  Relative potency: 4.6

## CC(O)[C@H]1C(=O)N2C(C(=O)O)=C(c3ccc(CN)cc3)C[C@H]12 (some centres undefined)
Pseudomonas
  Relative potency: 0.02
Staphylococcus aureus
  Relative potency: 1.5
Proteus
  Relative potency: 6.5
Klebsiella
  Relative potency: 3.2
Escherichia coli
  Relative potency: 3.5
Serratia
  Relative potency: 5.3
Enterobacter
  Relative potency: 11
Enterococcus
  Relative potency: 9.2

## C[C@@H](O)[C@H]1C(=O)N2C(C(=O)O)=C(c3ccc(CN4CCCC4)cc3)C[C@H]12
Pseudomonas
  Relative potency: 0.07
Staphylococcus aureus
  Relative potency: 0.6
[1]
  Susceptibility: 0.04
Proteus
  Relative potency: 8
Klebsiella
  Relative potency: 2.1
Escherichia coli
  Relative potency: 2.8
Serratia
  Relative potency: 9.8
Enterobacter
  Relative potency: 5.7
Enterococcus
  Relative potency: 12.1

## C[C@@H](O)[C@H]1C(=O)N2C(C(=O)[O-])=C(c3ccc(C[n+]4ccc(N)cc4)cc3)C[C@H]12
Pseudomonas
  Relative potency: 0.2
Staphylococcus aureus
  Relative potency: 1.1
[1]
  Susceptibility: 0.14
Proteus
  Relative potency: 16
Klebsiella
  Relative potency: 2.3
Escherichia coli
  Relative potency: 7
Serratia
  Relative potency: 29.9
Enterobacter
  Relative potency: 11.3
Enterococcus
  Relative potency: 24.3

## C[C@H](O)[C@H]1C(=O)N2C(C(=O)O)=C(c3ccc(CN)cc3)C[C@H]12
[1]
  Susceptibility: 0.02
